Where a name gives a salt, the structure may show the parent alone.
Target: T1, Human IP6K1 (Homo sapiens, UniProt Q92551)
T1 construct: GST (N, cleaved yes); made in house; host or cells: C43 E. coli, pGEX-6P-2
Assay: IP6K1 high-throughput screen of the Sigma LOPAC (ADP-Glo Max, single point);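 note: final compound concentration 10µM in 5% DMSO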
Format: biochemical

[1] = Sigma LOPAC single-point screen, ADP-Glo Max raw signal per well
[2] = Sigma LOPAC single-point screen, Z-score from plate average and StDev
[3] = LOPAC single-point screen, ADP-Glo Max raw signal per well
[4] = LOPAC single-point screen, Z-score against plate average and StDev
[5] = LOPAC single-point screen, Z-score from raw signal with plate average and StDev
[6] = LOPAC single-point screen, ADP-Glo Max luminescence raw signal per well
[7] = LOPAC single-point screen, Z-score relative to plate average and StDev
[8] = LOPAC single-point screen, Z-score from plate average and StDev

T1 sequence (Q92551 whole entry): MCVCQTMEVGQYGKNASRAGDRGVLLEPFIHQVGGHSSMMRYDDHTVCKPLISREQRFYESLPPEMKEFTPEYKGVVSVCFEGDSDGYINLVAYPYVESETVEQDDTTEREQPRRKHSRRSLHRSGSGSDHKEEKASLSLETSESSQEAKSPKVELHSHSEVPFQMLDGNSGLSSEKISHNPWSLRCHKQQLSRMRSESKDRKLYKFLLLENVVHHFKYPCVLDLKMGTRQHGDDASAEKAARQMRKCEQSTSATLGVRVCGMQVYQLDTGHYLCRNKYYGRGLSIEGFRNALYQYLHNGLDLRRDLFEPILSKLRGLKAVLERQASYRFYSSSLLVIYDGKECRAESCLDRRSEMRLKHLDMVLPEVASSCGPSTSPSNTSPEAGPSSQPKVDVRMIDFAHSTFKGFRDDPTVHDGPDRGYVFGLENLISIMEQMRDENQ

Molecule: Cc1ccc(S(=O)(=O)N[C@@H](Cc2ccccc2)C(=O)CCl)cc1
- Raw Signal [1]: 59222
- Z-score [2]: 0.6213

Molecule: Cc1cnc(NC(=O)C2=C(O)c3ccccc3S(=O)(=O)N2C)s1 [Meloxicam sodium]
- Raw Signal [3]: 55155
- Z-score [4]: 0.128

Molecule: COc1ccccc1N1CCN(CC(O)COc2cccc3ccccc23)CC1.Cl.Cl (stereo not shown) [Naftopidil dihydrochloride]
- Raw Signal [1]: 57488
- Z-score [2]: 0.52

Molecule: CCCCc1oc2ccccc2c1C(=O)c1cc(I)c(OCCN(CC)CC)c(I)c1 [Amiodarone hydrochloride]
- Raw Signal [3]: 57216
- Z-score [5]: -0.1228

Molecule: CCCN1C[C@H](CSC)C[C@@H]2c3cccc4[nH]cc(c34)C[C@H]21 [Pergolide methanesulfonate]
- Raw Signal [3]: 53757
- Z-score [5]: -0.4404

Molecule: CC1=C[C@@H]2c3cccc4[nH]cc(c34)C[C@H]2N(C)C1 [Agroclavine]
- Raw Signal [6]: 53866
- Z-score [7]: -0.7128

Molecule: CC(=O)NCCc1c[nH]c2ccccc12 [N-Acetyltryptamine]
- Raw Signal [6]: 53398
- Z-score [7]: -0.7952

Molecule: CCCCCN(CCCCC)C(=O)C(CCC(=O)O)NC(=O)c1ccc(Cl)c(Cl)c1 (stereo not shown) [Lorglumide sodium]
- Z-score [4]: 0.04041

Molecule: C[C@](N)(Cc1ccc(O)c(O)c1)C(=O)O [L-alpha-Methyl DOPA]
- Raw Signal [6]: 24071
- Z-score [7]: -5.095

Molecule: C[Se]C[C@H](N)C(=O)O.Cl [Se-(methyl)selenocysteine hydrochloride]
- Raw Signal [3]: 55528
- Z-score [4]: 0.1906

Molecule: Cc1cn([C@H]2C[C@H](N=[N+]=[N-])[C@@H](CO)O2)c(=O)[nH]c1=O [3 -Azido-3 -deoxythymidine]
- Raw Signal [1]: 61635
- Z-score [2]: 0.6555

Molecule: 17alpha-hydroxyprogesterone
- Raw Signal [1]: 57278
- Z-score [2]: 0.4287

Molecule: O=c1n(CCCN2CCN(c3cccc(Cl)c3)CC2)nc2ccccn12 [Trazodone hydrochloride]
- Raw Signal [1]: 58114
- Z-score [2]: 0.4061

Molecule: CC1=C(C(=O)O)N2C(=O)[C@@H](NC(=O)[C@H](N)c3ccccc3)[C@H]2SC1.O [Cephalexin hydrate]
- Raw Signal [1]: 61524
- Z-score [2]: 0.636

Molecule: CNC[C@H](O)c1ccc(O)c(O)c1 [(-)-Epinephrine bitartrate]
- Raw Signal [6]: 51229
- Z-score [7]: -0.7998

Molecule: CN1[C@@H]2CC[C@H]1C[C@@H](OC(=O)C(CO)c1ccccc1)C2 (stereo partly shown) [Atropine sulfate]
- Raw Signal [3]: 57358
- Z-score [5]: -0.09777

Molecule: Br.Br.N=C(N)SCCc1cccc(CCSC(=N)N)c1 [1,3-PBIT dihydrobromide]
- Raw Signal [1]: 61855
- Z-score [2]: 1.133

Molecule: Cc1cn([C@H]2C=C[C@@H](CO)O2)c(=O)[nH]c1=O [2 ,3 -didehydro-3 -deoxythymidine]
- Raw Signal [3]: 54462
- Z-score [5]: -0.1432

Molecule: COC(=O)C1=C(C)NC(C)=C(C(=O)OC)C1c1ccccc1[N+](=O)[O-] [Nifedipine]
- Raw Signal [1]: 59653
- Z-score [2]: 0.8837

Molecule: COC(=O)[C@H](NC(=O)c1cc(-c2ccccc2)nc2ccccc12)c1ccccc1 [SB 218795]
- Raw Signal [1]: 57840
- Z-score [2]: 0.5429

Molecule: Cn1c(=O)c2[nH]c(-c3ccccc3)nc2n(C)c1=O [1,3-Dimethyl-8-phenylxanthine]
- Raw Signal [3]: 54517
- Z-score [4]: 0.02075

Molecule: Oc1cc(O)cc(/C=C/c2ccc(O)c(O)c2)c1 [Piceatannol]
- Raw Signal [6]: 49635
- Z-score [7]: -0.7996

Molecule: CCC(=O)N1CCN(C(=O)c2ccccc2)CC1 [DM 235]
- Raw Signal [3]: 55630
- Z-score [4]: 0.09402

Molecule: CC(C)[C@@H]1NC(=O)[C@H](CCCCN)NC(=O)[C@@H](Cc2c[nH]c3ccccc23)NC(=O)[C@H](Cc2ccc(O)cc2)NC(=O)[C@H](C)N(C)C(=O)[C@H](Cc2ccccc2)NC1=O [Seglitide]
- Raw Signal [3]: 55030
- Z-score [5]: -0.1931

Molecule: C#CCN(C)Cc1ccccc1 [Pargyline hydrochloride]
- Raw Signal [3]: 54085
- Z-score [5]: -0.3767

Molecule: NCCCC(=O)O [GABA]
- Raw Signal [1]: 63549
- Z-score [2]: 0.9926

Molecule: Nc1ncn([C@@H]2O[C@H](CO)[C@@H](O)[C@H]2O)c(=O)n1 [5-azacytidine]
- Raw Signal [6]: 54885
- Z-score [7]: -0.5333

Molecule: CNC1(C)C2CCC(C2)C1(C)C (stereo not shown) [Mecamylamine hydrochloride]
- Raw Signal [3]: 55214
- Z-score [4]: 0.1379

Molecule: CN1[C@@H]2CC[C@H]1C[C@@H](OC(=O)[C@H](CO)c1ccccc1)C2 [L-Hyoscyamine]
- Raw Signal [6]: 63094
- Z-score [8]: 1.61

Molecule: CC(=O)[C@H]1CC[C@H]2[C@@H]3CC[C@H]4C[C@H](O)CC[C@]4(C)[C@H]3CC[C@]12C [5alpha-Pregnan-3alpha-ol-20-one]
- Raw Signal [3]: 55941
- Z-score [4]: -0.01609

Molecule: Cl.NC1CCN(c2cccc(Cl)n2)CC1 [SR 57227A]
- Raw Signal [6]: 53376
- Z-score [7]: -0.5144

Molecule: CCCN1CCOC2c3cc(O)ccc3OCC21.Cl (racemic) [(±)-PD 128,907 hydrochloride]
- Raw Signal [6]: 53572
- Z-score [7]: -0.4763

Molecule: Cl.O=C(OC1CCN(CCCl)CC1)C(c1ccccc1)c1ccccc1
- Raw Signal [3]: 54369
- Z-score [5]: -0.1621

Molecule: Br.CCCN(CCC)[C@@H]1CCc2cccc(O)c2C1 [R-(+)-8-Hydroxy-DPAT hydrobromide]
- Raw Signal [1]: 58179
- Z-score [2]: 0.6117

Molecule: CC(C)CC(NC(=O)C1OC1C(=O)O)C(=O)NCCCCNC(=N)N (stereo not shown) [E-64]
- Raw Signal [1]: 60196
- Z-score [2]: 1.021

Molecule: Br.C=CCN1CCc2c(cc(O)c(O)c2Cl)C(c2ccccc2)C1 (racemic) [(±)-Chloro-APB hydrobromide]
- Raw Signal [1]: 58189
- Z-score [2]: 0.6137

Molecule: C[N+](C)(C)CCC(=O)c1cccc2ccccc12.[I-]
- Raw Signal [3]: 55064
- Z-score [4]: 0.1127

Molecule: Cl.O=C(Cc1ccc(Cl)c(Cl)c1)N1CCCCC1CN1CCCC1 (stereo not shown) [BRL 52537 hydrochloride]
- Raw Signal [3]: 55058
- Z-score [5]: -0.1876

Molecule: CCCCNc1cc(C(=O)O)cc(S(N)(=O)=O)c1Oc1ccccc1 [Bumetanide]
- Raw Signal [1]: 62300
- Z-score [2]: 0.7727

Molecule: CSc1nc(N)c2ncn([C@@H]3O[C@H](COP(=O)(O)OP(=O)(O)O)[C@@H](O)[C@H]3O)c2n1.[Na].[Na].[Na]
- Raw Signal [3]: 54295
- Z-score [4]: -0.01655

Molecule: NC(N)=NOCC[C@H](N)C(=O)O.O=S(=O)(O)O [L-Canavanine sulfate]
- Raw Signal [1]: 61689
- Z-score [2]: 0.665

Molecule: NC(=O)N1c2ccccc2C=Cc2ccccc21 [Carbamazepine]
- Raw Signal [1]: 60604
- Z-score [2]: 0.4739

Molecule: Cl.Cl.Oc1ccc2c3c1O[C@H]1c4[nH]c5c(c4C[C@@]4(O)[C@@H](C2)N(CC2CC2)CC[C@]314)C[C@@]1(O)[C@H]2Cc3ccc(O)c4c3[C@@]1(CCN2CC1CC1)[C@H]5O4 [nor-Binaltorphimine dihydrochloride]
- Raw Signal [1]: 56488
- Z-score [2]: 0.3519

Molecule: Cc1c(OCC(F)(F)F)ccnc1C[S+]([O-])c1nc2ccccc2[nH]1 (stereo not shown) [Lansoprazole]
- Raw Signal [3]: 53701
- Z-score [5]: -0.1164

Molecule: c1ccc2cc(-c3ncc[nH]3)ccc2c1 [Benazoline oxalate]
- Raw Signal [1]: 61441
- Z-score [2]: 0.6214

Molecule: R(-)-Me5
- Raw Signal [3]: 53002
- Z-score [5]: -0.2338

Molecule: CN1CCN(C(=O)OC2c3nccnc3C(=O)N2c2ccc(Cl)cn2)CC1 (stereo not shown) [Zopiclone]
- Raw Signal [3]: 56506
- Z-score [4]: 0.09368

Molecule: COc1ccc2c(c1)[C@@]13CCCC[C@H]1[C@@H](C2)NCC3.Cl [3-Methoxy-morphanin hydrochloride]
- Raw Signal [3]: 54071
- Z-score [4]: -0.05419

Molecule: O=C1c2c(O)ccc(O)c2C(=O)c2c(NCCNCCO)ccc(NCCNCCO)c21 [Mitoxantrone]
- Raw Signal [6]: 48302
- Z-score [7]: -1.024

Molecule: CC(N)=O [Acetamide]
- Raw Signal [1]: 63288
- Z-score [2]: 0.9467

Molecule: Nc1ncnc2c1ncn2[C@@H]1O[C@H](C(=O)NC2CC2)[C@@H](O)[C@H]1O [5 -(N-Cyclopropyl)carboxamidoadenosine]
- Raw Signal [3]: 57761
- Z-score [4]: -0.02679

Molecule: Cl.N=C(N)NC(=N)Nc1cccc(Cl)c1
- Raw Signal [6]: 49824
- Z-score [7]: -1.085

Molecule: Cl.Fc1ccc(CN(C2=NCCN2)c2c(Cl)cccc2Cl)cc1 [IMID-4F hydrochloride]
- Raw Signal [1]: 60859
- Z-score [2]: 1.156

Molecule: O=C(NCCNCC(O)COc1ccc(O)cc1)N1CCOCC1 (stereo not shown) [Xamoterol hemifumarate]
- Raw Signal [1]: 60033
- Z-score [2]: 0.7789

Molecule: Cl.Nc1ccn([C@@H]2O[C@H](CO)[C@@H](O)[C@@H]2O)c(=O)n1
- Raw Signal [6]: 65878
- Z-score [8]: 1.403

Molecule: NC(C(=O)O)C(O)C(=O)O (racemic) [DL-threo-beta-hydroxyaspartic acid]
- Raw Signal [6]: 64938
- Z-score [8]: 1.984

Molecule: COCCc1ccc(OCC(O)CNC(C)C)cc1.O=C(O)C(O)C(O)C(=O)O (racemic) [(±)-Metoprolol (+)-tartrate]
- Raw Signal [1]: 61286
- Z-score [2]: 1.158

Molecule: CC(C)Oc1cccnc1N(C)C1CCN(Cc2ccccc2)CC1.O=C(O)/C=C\C(=O)O [U-101958 maleate]
- Raw Signal [6]: 65094
- Z-score [8]: 1.762

Molecule: OC[C@H]1O[C@@H](n2cnc3c(N[C@H]4CC5CCC4C5)ncnc32)[C@H](O)[C@@H]1O (stereo partly drawn) [(S)-ENBA]
- Raw Signal [3]: 53537
- Z-score [5]: -0.331

Molecule: O=C(O)/C=C\C(=O)O.O=[N+]([O-])c1ccc2nc(N3CCNCC3)ccc2c1 [Quipazine, 6-nitro-, maleate]
- Z-score [5]: -0.2764

Molecule: CC(N)(Cc1ccc(O)cc1)C(=O)O (racemic) [DL-alpha-Methyl-p-tyrosine]
- Raw Signal [6]: 72995
- Z-score [8]: 2.656

Molecule: O=NN(CCCl)C(=O)NCCCl [Carmustine]
- Raw Signal [6]: 54247
- Z-score [7]: -0.6457

Molecule: Nc1nnc(-c2cccc(Cl)c2Cl)c(N)n1 [Lamotrigine]
- Raw Signal [3]: 53800
- Z-score [5]: -0.09973

From paper PMC5706701, “Development of a homogenous high-throughput assay for inositol hexakisphosphate kinase 1 activity” (PLoS ONE, 2017)
